Experimental data taken from patent US10010560B2, “Small molecule HSP70 inhibitors” (THE TRUSTEES OF THE UNIVERSITY OF PENNSYLVANIA, priority 2014, dated 2018).

How the values were obtained:
[1] = target: T1, full-length, nucleotide-free HSP70 protein (Homo sapiens, UniProt P0DMV8, E110D); test: ITC binding to nucleotide-free full-length HSP70; details: average and s.d. of two experiments, read-out: dissociation constant
T1 construct: Full-length recombinant proteins of HSP70 (aa 1-641) as well as DnaK (aa 1-638); His6 (N); made in house; host or cells: E. coli BL21 Star (DE3)
Text: FIGS. 3A-3L illustrate that PET-16 binds directly to ADP-bound HSP70 and DnaK. Specifically, FIGS. 3A-3H are isothermal calorimetric titration (ITC) assays of the indicated compounds (NRLLLTG—SEQ ID NO: 7, PES or PET-16) with purified HSP70-ADP, DnaK-ADP or HSP70-ATP proteins. The data are representative of three independent experiments. FIGS. 3I and 3J are ITC assays for the interaction between HSP70 (aa 386-616 of SEQ ID NO: 2) protein and PET-16 (I) or TPP (J). Binding constants (Kd values) are shown (average and s.d. from three independent experiments). PET-16 also binds directly to the purified, full-length, nucleotide-free HSP70 protein, with a reported dissociation constant of 5.2+/−0.1 micromolar, which is the average and standard deviation from two independent experiments (data not shown). FIG. 3K is ITC assay of HSP70 protein preincubated with ADP and PES for 1 h. The mixture was titrated into the sample cell containing PET-16. The data are representative of three independent ITC experiments. FIG. 3L are western blots of human lung carcinoma (H1299) cells that were pretreated with DMSO or excess (8×) PET-16 for 1 h prior to the addition of 20 μM B-PES for 5 h and examined for the expression of HSP70 or BCL-xL. B-PES-containing complexes were captured by Avidin resins and immunoblotted either with anti-HSP70 or anti-BCL-xL antibody. […]

[2] = system: primary melanocytes and nontransformed human fibroblasts (IMR90); test: Cellular ATP levels (AlamarBlue assay) in normal cells; assay type: cell-based
Text: FIGS. 5A-5F illustrates that PET-16 leads to loss of mitochondrial protein Cyclophilin D and impairs bioenergetics in tumor cells. FIGS. 5A-5D are western blots of HSP70, which is present at mitochondria of tumor H1299 cells but not in normal tissue, such as liver. The constitutively expressed 70 kDa family members, HSC70 and GRP75, are present in mitochondria of normal cells. Equal amounts of whole cell (WC)-, cytosolic (cyto)-, and mitochondrial (mito)-extracts prepared from cell lines H1299 (A, C) and MIA PaCa-2 (B) or normal (liver) cells (C, D) were examined by western blot analysis for the presence of the proteins indicated. […] Decreases of AlamarBlue® fluorescence, indicative of mitochondrial damage, are noted in PET-16-treated tumor cells (melanoma tumor cell line WM88 (-), melanoma tumor cell line WM3000 (×), melanoma tumor cell line WM852 (*), human melanoma 451 Lu cells (●), and melanoma tumor cell line WM989 (|), but not normal cells (nontransformed human fibroblasts (IMR90-♦) and primary melanocytes (▪)). Values are normalized to the vehicle-treated cells. Error bars represent standard deviation (s.d.) of four independent experiments.

T1 sequence (P0DMV8 whole entry E110D, the tested form may be a part): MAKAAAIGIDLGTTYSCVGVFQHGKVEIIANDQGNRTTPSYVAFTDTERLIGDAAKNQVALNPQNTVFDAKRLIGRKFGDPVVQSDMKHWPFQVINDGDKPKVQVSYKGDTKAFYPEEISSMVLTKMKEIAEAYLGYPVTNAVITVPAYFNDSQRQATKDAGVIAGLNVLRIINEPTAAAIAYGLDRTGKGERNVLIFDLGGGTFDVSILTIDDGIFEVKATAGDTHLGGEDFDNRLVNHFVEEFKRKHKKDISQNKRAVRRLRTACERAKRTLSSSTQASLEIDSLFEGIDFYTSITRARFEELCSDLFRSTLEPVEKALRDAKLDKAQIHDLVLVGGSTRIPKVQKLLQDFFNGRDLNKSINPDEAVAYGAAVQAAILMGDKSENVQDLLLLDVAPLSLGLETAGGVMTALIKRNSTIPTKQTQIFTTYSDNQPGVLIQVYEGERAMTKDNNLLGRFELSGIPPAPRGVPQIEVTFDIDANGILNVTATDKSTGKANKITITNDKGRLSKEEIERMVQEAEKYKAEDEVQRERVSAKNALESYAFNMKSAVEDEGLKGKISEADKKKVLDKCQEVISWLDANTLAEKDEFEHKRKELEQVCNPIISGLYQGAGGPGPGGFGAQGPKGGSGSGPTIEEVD

**Q.** For C(#C[P+](c1ccccc1)(c1ccccc1)c1ccccc1)c1ccccc1.[Br-] [PET-16, triphenyl(phenylethynyl)phosphonium bromide], which Kd [1] is on record?
**A.** 5.2 µM

**Q.** And the “total ATP levels” value [2]?
**A.** no decrease
